Data reported in PubChem BioAssay (NCI).
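All cell lines were grown in 96-well plates and treated with compound for 48 hours. GI50 is the concentration that inhibits growth by half. TGI denotes the concentration required for complete inhibition of growth.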

Legend:
Assay in all cases: NCI tumour cell line growth inhibition, 48 h
[1] = test system: A498 renal
[2] = test system: IGROV1 ovarian
[3] = test system: KM12 colon
[4] = test system: M14 melanoma
[5] = test system: MDA-MB-231 breast
[6] = test system: MOLT-4 leukemia
[7] = test system: NCI-H522 lung
[8] = test system: SW-620 colon
[9] = test system: U251 CNS
[10] = test system: UACC-62 melanoma

Row | Structure (SMILES) | GI50 [1] [µM] | TGI [1] [µM] | GI50 [2] [µM] | TGI [2] [µM] | GI50 [3] [µM] | TGI [3] [µM] | GI50 [4] [µM] | TGI [4] [µM] | GI50 [5] [µM] | TGI [5] [µM] | GI50 [6] [µM] | TGI [6] [µM] | GI50 [7] [µM] | TGI [7] [µM] | GI50 [8] [µM] | TGI [8] [µM] | GI50 [9] [µM] | TGI [9] [µM] | GI50 [10] [µM] | TGI [10] [µM]
1 | O=C(N/N=C\c1ccc(N(CCCl)CCCl)cc1[N+](=O)[O-])c1cccnc1 | > 100 | > 100 | > 100 | > 100 | > 100 | > 100 | > 100 | > 100 | > 100 | > 100 | > 100 | > 100 | > 100 | > 100 | > 100 | > 100 | > 100 | > 100 | > 100 | > 100
2 | NC(CSSCC(N)=NCC12CC3CC(CC(C3)C1)C2)=NCC12CC3CC(CC(C3)C1)C2 | – | 51 | – | 40.9 | – | 29 | – | 50.2 | – | 16.2 | – | 16.9 | – | 38.6 | – | 41.6 | – | 29 | – | 26.1
3 | O=C(Nc1cccc([N+](=O)[O-])c1)c1n[nH]n(-c2cccc([N+](=O)[O-])c2)c1=O | – | > 100 | – | > 100 | – | > 100 | – | > 100 | – | > 100 | – | > 100 | – | > 100 | – | > 100 | – | > 100 | – | > 100
4 | COc1ccc(N=NC(=O)NC(CC(C)C)C(N)=O)cc1 (stereo not given) | – | > 31.6 | – | > 100 | – | > 100 | – | > 100 | – | > 31.6 | – | > 100 | – | > 100 | – | > 100 | – | > 100 | – | > 100
5 | CCOC(=O)C(NC(=O)c1ccccc1)(N1CCN(c2cc3c(cc2F)c(=O)c(C(=O)O)cn3CC)CC1)C(F)(F)F (stereo not given) | – | 65.2 | – | > 100 | – | 81.3 | – | > 100 | – | 82.9 | – | 54.2 | – | 32.4 | – | > 100 | – | > 100 | – | > 100
6 | NC1=Nc2cc(Cl)ccc2Sc2nc3ccccc3n21 | – | > 100 | – | > 100 | – | > 100 | – | > 100 | – | > 100 | – | > 100 | – | > 100 | – | > 100 | – | > 100 | – | > 100
7 | S=c1[nH]n2c(CCCCCCCCc3nnc4sc(=S)[nH]n34)nnc2s1 | – | > 100 | – | > 100 | – | > 100 | – | > 100 | – | > 100 | – | > 100 | – | > 100 | – | > 100 | – | > 100 | – | > 100
8 | O=C(N=c1ccc2nc(=O)[nH]n(O)c-2c1)C(F)(F)F | – | > 100 | – | > 100 | – | > 100 | – | > 100 | – | > 100 | – | > 100 | – | > 100 | – | > 100 | – | > 100 | – | > 100
9 | O=C(CCC=C(S(=O)(=O)c1ccccc1)S(=O)(=O)c1ccccc1)c1ccccc1 | – | 31.7 | – | 31 | – | > 100 | – | 20.9 | – | 22.9 | – | > 100 | – | 9.45 | – | 15 | – | 15.6 | – | 19.7
10 | COC(=O)c1ccc(C)cc1CC1Cc2ccc(C)cc2C1=O (stereo not given) | – | 9.19 | – | > 100 | – | 22.1 | – | 32.2 | – | 77.4 | – | 26.4 | – | 5.48 | – | > 100 | – | 16.3 | – | 51.4
11 | Cc1oc2c(c1C)S(=O)(=O)C(C#N)=C(N(C)C)N2 | – | > 100 | – | > 100 | – | > 100 | – | > 100 | – | > 100 | – | > 100 | – | > 100 | – | > 100 | – | > 100 | – | > 100
12 | COc1cc2c3c(n(C)c(=O)c2cc1OC)-c1cc2c(cc1/C3=C\CCCI)OCO2 | – | > 93.3 | – | > 46.7 | – | > 100 | – | > 100 | – | > 100 | – | > 36.3 | – | > 100 | – | > 100 | – | > 100 | – | > 100
13 | Cc1cccc(N2C(=O)C3c4[nH]c5ccccc5c4C4CCC(C(C)(C)C)CC4C3C2=O)c1 (stereo not given) | – | 25.8 | – | 16.4 | – | 25.2 | – | 28.3 | – | 21.3 | – | 21.3 | – | 24.3 | – | 24.1 | – | 47.8 | – | 49
14 | CC(C)=CCc1[nH]c2ccccc2c1C1=C(O)C(=O)C(c2c(CC=C(C)C)[nH]c3ccccc23)=C(O)C1=O | – | 2.72 | – | 3.45 | – | 2.82 | – | 15.6 | – | 3.38 | – | 15.4 | – | 5.58 | – | 14.9 | – | 6.52 | – | 2.94
15 | C=C1CC(Cn2ccc(=O)[nH]c2=O)(c2ccc(Cl)cc2)OC1=O (stereo not given) | – | 32.4 | – | 9.98 | – | > 58.4 | – | 12.9 | – | 31.4 | – | 4.47 | – | 2.26 | – | 4.31 | – | 31.7 | – | 13.4
16 | C[C@@H]1C(=O)C[C@H]2C(C)(C)CCC[C@]2(C)[C@@]1(O)CCc1ccoc1 | – | > 100 | – | > 100 | – | > 100 | – | > 100 | – | > 100 | – | > 100 | – | > 100 | – | > 100 | – | > 100 | – | > 100
17 | COC(=O)c1c(C#N)c(N)nc2c1CCC2 | – | > 100 | – | > 100 | – | > 100 | – | > 100 | – | > 100 | – | > 100 | – | > 100 | – | > 100 | – | > 100 | – | > 100
